# According to patent US10471028B2, “Small molecule efflux pump inhibitors” (UNIVERSITY OF ROCHESTER, priority 2014, dated 2019):
# Test system: A. baumannii strain 98-37-09
# Assay: MEC determination: potentiation of minocycline toward serum grown A. baumannii
# Assay type: cell-based, Acinetobacter baumannii
# Settings: 1×MEC of compound plus minocycline in serum, versus minocycline alone; plating
# Procedure: The TimTec ActiProbe-25K diversity-set and Natural Product compound libraries (29,900 compounds total; TimTec, Newark, Del.) were initially screened for putative efflux pump inhibitors by identifying compounds that potentiated the antimicrobial property of a sub-inhibitory concentration of minocycline toward A. baumannii grown in human serum. To do so, A. baumannii strain 98-37-09 was grown for 16 hours in LB medium at 37° C. on a rotary shaker at 225 rpm. Approximately 1×10^5 CFU were then transferred to individual wells of a 96-well round-bottom plate (Corning Costar, Tewksbury, Mass.) containing 100 μL of human serum supplemented with of minocycline (0.5 μg mL^−1; 0.5× minimum inhibitory concentration in serum) and individual members of the Timtec ActiProbe or Natural product library (50 μM). Plates were then incubated at 37° C. for 48 hours. Growth was measured as a function of turbidity. Putative efflux pump inhibitors were identified as compounds that inhibited A. baumannii growth in human serum containing minocycline and were subsequently retested in triplicate, as indicated above. Untreated A. baumannii grown in serum supplemented with minocycline+/−PAβN served as positive and negative controls, respectively. […] Repeat testing in which well constituents were serial diluted and plated on LB agar plates validated that 85 compounds did indeed limit A. baumannii growth in serum supplemented with minocycline, reducing the number of viable colony forming units between 2-6 log cfu in comparison to minocycline alone treated cells.
# The MEC was defined as the lowest concentration of test compound required to inhibit the growth of A. baumannii in serum in the presence of 0.5 μg ml^−1 minocycline. Plating confirmed that addition of 1×MEC of each compound elicited ≥1.9-log reduction in A. baumannii cells grown in serum supplemented with minocycline alone (see Table 1).
row,Structure (SMILES),Log-reduction Colony Forming Units (ml^−1) [log]
1,C/C(=N\c1ccc(S(=O)(=O)Nc2nccs2)cc1)c1ccc(O)cc1O [ST012963],3.90
2,NNC(=O)CSCc1ccc(Cl)cc1 [ST020992],7.43
3,C/C(Cn1nnc([N+](=O)[O-])n1)=N\NC(=O)CC#N [ST025773],8.00
4,CCCCCCCN1C(=O)/C(=c2\sc3n(c2=O)C(c2ccc(OC(=O)c4ccco4)cc2)C(C(=O)OC)=C(C)N=3)c2ccccc21 (stereo not drawn) [ST029434],3.02
5,N#Cc1c(/N=C/c2ccco2)sc2c1CCCC2 [ST033063],1.93
6,COc1ccc(C=O)cc1Cn1nnc2ccccc21 [ST033235],2.21
7,Cc1cccc(N(CC(=O)NC23CC4CC(CC(C4)C2)C3)S(=O)(=O)c2ccccc2)c1 [ST034012],2.00
8,COc1ccccc1C1N(Cc2ccccc2)CCN1Cc1ccccc1 [ST036365],3.50
9,CCOC(=O)C1=C(CN2CCCCC2)NC(=O)NC1c1ccc2c(c1)OCO2 (stereo not drawn) [ST058478],6.33
10,CN1CCN(C(=O)CCSc2ccccc2)CC1 [ST058672],5.97
11,CC(C)CCOC(=O)C(NS(=O)(=O)c1ccc2c(c1)CCN2S(C)(=O)=O)c1ccccc1 (stereo not drawn) [ST058811],6.17
12,CCOc1cc(C(=O)N2CC(=O)Nc3ccccc32)cc(OCC)c1OCC [ST059010],6.11
13,Nc1nnc(SCC(=O)N2CCCC2)s1 [ST059421],6.31
14,CCN(CC)S(=O)(=O)c1ccc(NC(=O)C2CC(=O)N(c3ccc(OC)cc3)C2)cc1 (stereo not drawn) [ST059822],6.23
15,CCCCOc1ccc(C(=O)NCCC2=CCCCC2)cc1 [ST060056],5.38
16,COc1ccc(-c2c3c([nH]c(=O)c2C#N)CCCCC3)cc1 [ST060355],6.94

# Same assay, conditions: lowest concentration inhibiting growth in 100% human serum with 0.5 μg ml^−1 minocycline, 48 hr
row,Structure (SMILES),MEC [µg/mL]
1,C/C(=N\c1ccc(S(=O)(=O)Nc2nccs2)cc1)c1ccc(O)cc1O [ST012963],32
2,NNC(=O)CSCc1ccc(Cl)cc1 [ST020992],2
3,C/C(Cn1nnc([N+](=O)[O-])n1)=N\NC(=O)CC#N [ST025773],32
4,CCCCCCCN1C(=O)/C(=c2\sc3n(c2=O)C(c2ccc(OC(=O)c4ccco4)cc2)C(C(=O)OC)=C(C)N=3)c2ccccc21 (stereo not drawn) [ST029434],64
5,N#Cc1c(/N=C/c2ccco2)sc2c1CCCC2 [ST033063],2
6,COc1ccc(C=O)cc1Cn1nnc2ccccc21 [ST033235],32
7,Cc1cccc(N(CC(=O)NC23CC4CC(CC(C4)C2)C3)S(=O)(=O)c2ccccc2)c1 [ST034012],2
8,COc1ccccc1C1N(Cc2ccccc2)CCN1Cc1ccccc1 [ST036365],4
9,CCOC(=O)C1=C(CN2CCCCC2)NC(=O)NC1c1ccc2c(c1)OCO2 (stereo not drawn) [ST058478],64
10,CN1CCN(C(=O)CCSc2ccccc2)CC1 [ST058672],4
11,CC(C)CCOC(=O)C(NS(=O)(=O)c1ccc2c(c1)CCN2S(C)(=O)=O)c1ccccc1 (stereo not drawn) [ST058811],4
12,CCOc1cc(C(=O)N2CC(=O)Nc3ccccc32)cc(OCC)c1OCC [ST059010],32
13,Nc1nnc(SCC(=O)N2CCCC2)s1 [ST059421],4
14,CCN(CC)S(=O)(=O)c1ccc(NC(=O)C2CC(=O)N(c3ccc(OC)cc3)C2)cc1 (stereo not drawn) [ST059822],4
15,CCCCOc1ccc(C(=O)NCCC2=CCCCC2)cc1 [ST060056],4
16,COc1ccc(-c2c3c([nH]c(=O)c2C#N)CCCCC3)cc1 [ST060355],32

# Test system: A. baumannii strain 98-37-09
# Assay: Cellular accumulation of minocycline (HPLC, triple-quadrupole MS)
# Assay type: cell-based, Acinetobacter baumannii
# Settings: human serum with 0.5 μg mL^−1 minocycline plus test compound (0.5×MEC, 1×MEC), 48 hours
# Procedure: High pressure liquid chromatography and triple-quadrupole mass spectrometry were used to measure the A. baumannii intracellular levels of minocycline during growth in human serum in the absence and presence of each putative efflux pump inhibitor. […] Cultures were incubated for 48 hours with shaking, at which point an aliquot was removed, serially diluted, and plated to determine the number of viable CFU per mixture. The remainder of the cells were pelleted by centrifugation at 900×g at 4° C., washed twice in PBS, mechanically lysed with a FastPrep cell disrupter (MP Biomedicals, Santa Ana, Calif.) for 20 seconds at 5 m s^−1 and the cellular debris was pelleted via centrifugation at 900×g and 4° C. The amount of minocycline present within the supernatant of ruptured cells was measured. Briefly, doxycycline (0.5 μg mL^−1) was first added to each supernatant to serve as an internal control to account for sample-to-sample preparation variability. The supernatant was then combined with acetonitrile (ACN) at a 1:10 ratio and centrifuged at 16,000×g, at 4° C., to collect minocycline and doxycycline. […] residual liquid was evaporated in a speed vacuum for 2 hours at 8,000×g. To quantify the amount of antibiotics retained, sample materials were suspended in 50% acetonitrile, filtered through a 0.2 μm low protein binding hydrophilic membrane (Millipore, Billerica, Mass.) then separated on Shimadzu high performance liquid chromatography instrument (Fisher Scientific) using a BetaBasic C18 reverse phase column (Thermo Scientific). Separation was carried out with two mobile phase solutions consisting of solution (A) water with 0.1% formic acid and solution (B) 100% ACN. The gradient profile of the chromatography runs was as follows: from 0 to 0.1 min 8% solution B, ramp step wise (37% to 60% solution B) from 0.1 to 6.5 min then holding for one minute before ramping down from 60% to 10% from 7.5 to 8 min. This was followed a hold at 10% solution B for one minute. […] The column was equilibrated in 8% solution B at 40° C. and the flow rate was set to 0.2 mL min^−1. Mass spectrometry analysis of fractions was carried out using a Thermo TSQ Quantum Ultra triple quadrupole mass spectrometer (Fisher Scientific). Data were analyzed using Xcalibur software (Thermo Scientific); the following parameters were used to detect minocycline and the internal control doxycycline: 458.208 m/z→282.971 m/z (collision energy=43, tube lens=119) for minocycline and 445.144 m/z→266.900 m/z (collision energy=39, tube lens=127) for doxycycline. Analysis of the raw data was conducted by using the area under the curve calculations with the Genesis algorithm to determine the concentration in each sample. The difference between the peak intensity and the y intercept of pre-established minocycline and doxycycline standard curves was divided by the slope of the standard curve to quantify the amount of minocycline within each sample. The total concentration of minocycline within each cell was calculated by normalizing to the number of cells within each corresponding culture.
row,Structure (SMILES),Minocylcine Per Cell (femtomoles cell^−1)
1,C/C(=N\c1ccc(S(=O)(=O)Nc2nccs2)cc1)c1ccc(O)cc1O [ST012963],3.23E−08
2,NNC(=O)CSCc1ccc(Cl)cc1 [ST020992],1.53E−07
3,C/C(Cn1nnc([N+](=O)[O-])n1)=N\NC(=O)CC#N [ST025773],1.04E−07
4,CCCCCCCN1C(=O)/C(=c2\sc3n(c2=O)C(c2ccc(OC(=O)c4ccco4)cc2)C(C(=O)OC)=C(C)N=3)c2ccccc21 (stereo not drawn) [ST029434],1.73E−08
5,N#Cc1c(/N=C/c2ccco2)sc2c1CCCC2 [ST033063],5.84E−08
6,COc1ccc(C=O)cc1Cn1nnc2ccccc21 [ST033235],6.652E−08
7,Cc1cccc(N(CC(=O)NC23CC4CC(CC(C4)C2)C3)S(=O)(=O)c2ccccc2)c1 [ST034012],1.55E−07
8,COc1ccccc1C1N(Cc2ccccc2)CCN1Cc1ccccc1 [ST036365],3.59E−08
9,CCOC(=O)C1=C(CN2CCCCC2)NC(=O)NC1c1ccc2c(c1)OCO2 (stereo not drawn) [ST058478],1.52E−07
10,CN1CCN(C(=O)CCSc2ccccc2)CC1 [ST058672],3.2E−07
11,CC(C)CCOC(=O)C(NS(=O)(=O)c1ccc2c(c1)CCN2S(C)(=O)=O)c1ccccc1 (stereo not drawn) [ST058811],2.48E−07
12,CCOc1cc(C(=O)N2CC(=O)Nc3ccccc32)cc(OCC)c1OCC [ST059010],3.78E−08
13,Nc1nnc(SCC(=O)N2CCCC2)s1 [ST059421],1.27E−07
14,CCN(CC)S(=O)(=O)c1ccc(NC(=O)C2CC(=O)N(c3ccc(OC)cc3)C2)cc1 (stereo not drawn) [ST059822],1.36E−07
15,CCCCOc1ccc(C(=O)NCCC2=CCCCC2)cc1 [ST060056],4.22E−08
16,COc1ccc(-c2c3c([nH]c(=O)c2C#N)CCCCC3)cc1 [ST060355],1.23E−08
